Results reported in patent US20230212131A1, “COLLAGEN 1 TRANSLATION INHIBITORS AND METHODS OF USE THEREOF” (Anima Biotech Inc., priority 2020, published 2023).

System: collagen 1 (COL1)
Experiment: WI-38 collagen 1 inhibition assay
Format: cell-based, human
Details: Cellular EC50, WI-38 cells; values are classes of LogEC50
From the text: All compounds were profiled for cellular potency in inhibition of collagen 1 (COL1) protein translation using a phenotypic screening platform.
WI-38 cells (ATCC® CCL-75™) were maintained in MEM EAGLE (NEAA) W. GLUTAMIN (Biological Industries, Cat. 06-1040-15-1A) containing 10% fetal bovine serum (FBS) and 1% Penicillin-Streptomycin Solution. To synchronize the cells (cell cycle synchronization) prior to induction of collagen synthesis, the cells were starved using DMEM-low glucose supplemented with 0.25% FBS for two hours and then without FBS for 24 hours. To induce collagen synthesis, the cells were treated with a collagen induction cocktail for the indicated time. Compounds were added with induction.
Cells in 96-well or 384-well plates were fixed for 20 min in 4% paraformaldehyde (PFA, ENCO, Cat. sc-281692). Following two washes with 1×PBS, cells were treated with hydrogen peroxide (Acros, Cat: 7722-84-1) for 10 minutes and then washed twice with 1×PBS. Cells were then incubated over-night at 4° C. with Anti-Collagen I (Sigma-Aldrich, Cat: C 2456) antibody and washed three times with 1×PBS. Cells were then incubated with a suitable secondary fluorescently-tagged antibody and nuclei stained with DAPI, for 1 hour, and then washed 3 times with 1×PBS.
Cell images were taken with Operetta (Perkin Elmer, USA), a wide-field fluorescence microscope at 20× magnification. After acquisition, the images were transferred to Columbus software (Perkin-Elmer) for image analysis. In Columbus, cells were identified by their nucleus, using the “Find Nuceli” module and cytoplasm was detected based on the secondary antibody channel. Subsequently, the fluorescent signal was enumerated in the identified cell region. Data was exported to a data analysis and visualization software, Tibco Spotfire, USA.

Row | SMILES | COL1 Efficacy (LogEC50)
1 | CS(=O)(=O)N1CCN(C2CCC(C(=O)Nc3nc(-c4ccccc4Cl)cs3)CC2)CC1 (single isomer, unassigned) [Compound 434, (1s,4s)-N-(4-(2-chlorophenyl)thiazol-2-yl)-4-(4-(methylsulfonyl)piperazin-1-yl)cyclohexane-1-carboxamide] | + (+: >−5)
2 | CS(=O)(=O)N1CCN(C2CCC(C(=O)Nc3nc(-c4ccccc4Cl)cs3)CC2)CC1 (single isomer, unassigned) [Compound 435, (1r,4r)-N-(4-(2-chlorophenyl)thiazol-2-yl)-4-(4-(methylsulfonyl)piperazin-1-yl)cyclohexane-1-carboxamide] | ++ (++: −5 to −6)
3 | COc1ccc(C(=O)Nc2nc(-c3ccc(Cl)cc3Cl)cs2)cc1 [Compound 300, N-(4-(2,4-dichlorophenyl)thiazol-2-yl)-4-methoxybenzamide] | ++ (++: −5 to −6)
4 | COc1ccc(C(=O)Nc2nc(-c3ccc(C)cc3C)cs2)cc1 [Compound 301, N-(4-(2,4-dimethylphenyl)thiazol-2-yl)-4-methoxybenzamide] | +++ (+++: <−6)
5 | O=C(Nc1nc(-c2ccc(Cl)cc2Cl)cs1)c1ccccc1 [Compound 302, N-(4-(2,4-dichlorophenyl)thiazol-2-yl)benzamide] | ++ (++: −5 to −6)
6 | O=C(Nc1nc(-c2ccc(Cl)cc2Cl)cs1)c1ccc(Cl)cc1 [Compound 303, 4-chloro-N-(4-(2,4-dichlorophenyl)thiazol-2-yl)benzamide] | + (+: >−5)
7 | COc1ccc(C(=O)Nc2nc(-c3ccccc3Cl)cs2)cc1 [Compound 304, N-(4-(2-chlorophenyl)thiazol-2-yl)-4-methoxybenzamide] | +++ (+++: <−6)
8 | COc1ccc(C(=O)Nc2nc(-c3cc(C)cc(C)c3)cs2)cc1 [Compound 305, N-(4-(3,5-dimethylphenyl)thiazol-2-yl)-4-methoxybenzamide] | ++ (++: −5 to −6)
9 | O=C(Nc1nc(-c2ccc(Cl)cc2Cl)cs1)C1CCOCC1 [Compound 306, N-(4-(2,4-dichlorophenyl)thiazol-2-yl)tetrahydro-2H-pyran-4-carboxamide] | ++ (++: −5 to −6)
10 | Cc1ccc(C(=O)Nc2nc(-c3ccc(Cl)cc3Cl)cs2)cc1 [Compound 307, N-(4-(2,4-dichlorophenyl)thiazol-2-yl)-4-methylbenzamide] | +++ (+++: <−6)
11 | O=C(Nc1nc(-c2ccc(Cl)cc2Cl)cs1)c1ccc(F)cc1 [Compound 308, N-(4-(2,4-dichlorophenyl)thiazol-2-yl)-4-fluorobenzamide] | ++ (++: −5 to −6)
12 | COc1ccc(C(=O)Nc2nc(-c3cc(Cl)cc(Cl)c3)cs2)cc1 [Compound 315, N-(4-(3,5-dichlorophenyl)thiazol-2-yl)-4-methoxybenzamide] | +++ (+++: <−6)
13 | COc1ccc(C(=O)Nc2nc(-c3cccnc3)cs2)cc1 [Compound 316, 4-methoxy-N-[4-(3-pyridyl)thiazol-2-yl]benzamide] | ++ (++: −5 to −6)
14 | Cc1ccc(C(=O)Nc2nc(-c3cnn(C)c3)cs2)cn1 [Compound 317, 6-methyl-N-[4-(1-methylpyrazol-4-yl)thiazol-2-yl]pyridine-3-carboxamide] | + (+: >−5)
15 | COc1ncccc1-c1csc(NC(=O)c2ccc(C)nc2)n1 [Compound 319, N-[4-(2-methoxy-3-pyridyl)thiazol-2-yl]-6-methyl-pyridine-3-carboxamide] | ++ (++: −5 to −6)
16 | COc1ccc(C(=O)Nc2nc(-c3ccc(F)cc3Cl)cs2)cc1 [Compound 321, N-[4-(2-chloro-4-fluoro-phenyl)thiazol-2-yl]-4-methoxy-benzamide] | +++ (+++: <−6)

Row | SMILES | COL1 Efficacy (LogEC50)
17 | Cc1ccc(C(=O)Nc2nc(-c3cccnc3)cs2)cn1 [Compound 323, 6-methyl-N-[4-(3-pyridyl)thiazol-2-yl]pyridine-3-carboxamide] | + (+: >−5)
18 | COc1ccc(C(=O)Nc2nc(-c3ccc(F)cc3F)cs2)cc1 [Compound 325, N-[4-(2,4-difluorophenyl)thiazol-2-yl]-4-methoxy-benzamide] | +++ (+++: <−6)
19 | COc1ccc(C(=O)Nc2nc(-c3cnccc3OC)cs2)cc1 [Compound 326, 4-methoxy-N-[4-(4-methoxy-3-pyridyl)thiazol-2-yl]benzamide] | ++ (++: −5 to −6)
20 | COCCOc1ccccc1-c1csc(NC(=O)c2ccc(OC)cc2)n1 [Compound 328, 4-methoxy-N-[4-[2-(2-methoxyethoxy)phenyl]thiazol-2-yl]benzamide] | ++ (++: −5 to −6)
21 | COc1ccc(C(=O)Nc2nc(-c3cnn(C)c3)cs2)cc1 [Compound 331, 4-methoxy-N-[4-(1-methylpyrazol-4-yl)thiazol-2-yl]benzamide] | + (+: >−5)
22 | COc1ccc(C(=O)Nc2nc(-c3cccnc3OC)cs2)cc1 [Compound 332, 4-methoxy-N-[4-(2-methoxy-3-pyridyl)thiazol-2-yl]benzamide] | ++ (++: −5 to −6)
23 | COc1ccc(C(=O)Nc2nc(-c3cnccc3C)cs2)cc1 [Compound 333, 4-methoxy-N-[4-(4-methyl-3-pyridyl)thiazol-2-yl]benzamide] | ++ (++: −5 to −6)
24 | O=C(Nc1nc(-c2ccccc2Cl)cs1)c1ccc(N2CCNCC2)cc1 [Compound 334, N-(4-(2-chlorophenyl)thiazol-2-yl)-4-(piperazin-1-yl)benzamide] | +++ (+++: <−6)
25 | COc1ccc(C(=O)Nc2nc(-c3cncnc3C)cs2)cc1 [Compound 335, 4-methoxy-N-[4-(4-methylpyrimidin-5-yl)thiazol-2-yl]benzamide] | + (+: >−5)
26 | COc1ccc(C(=O)Nc2nc(-c3ccccc3F)cs2)cc1 [Compound 336, N-[4-(2-fluorophenyl)thiazol-2-yl]-4-methoxy-benzamide] | ++ (++: −5 to −6)
27 | COc1ccc(C(=O)Nc2nc(-c3cccc4c3OCCO4)cs2)cc1 [Compound 337, N-[4-(2,3-dihydro-1,4-benzodioxin-5-yl)thiazol-2-yl]-4-methoxy-benzamide] | ++ (++: −5 to −6)
28 | COc1ccc(C(=O)Nc2nc(-c3cncnc3)cs2)cc1 [Compound 338, 4-methoxy-N-(4-pyrimidin-5-ylthiazol-2-yl)benzamide] | + (+: >−5)
29 | Cc1ccc(C(=O)Nc2nc(-c3cncnc3)cs2)cn1 [Compound 340, 6-methyl-N-(4-pyrimidin-5-ylthiazol-2-yl)pyridine-3-carboxamide] | +++ (+++: <−6)
30 | COCCOc1ccccc1-c1csc(NC(=O)c2ccc(C)nc2)n1 [Compound 341, N-[4-[2-(2-methoxyethoxy)phenyl]thiazol-2-yl]-6-methyl-pyridine-3-carboxamide] | ++ (++: −5 to −6)
31 | Cc1ccc(C(=O)Nc2nc(-c3cccc4c3OCCO4)cs2)cn1 [Compound 342, N-[4-(2,3-dihydro-1,4-benzodioxin-5-yl)thiazol-2-yl]-6-methyl-pyridine-3-carboxamide] | ++ (++: −5 to −6)
32 | COc1ccc(C(=O)Nc2nc(-c3cccnc3C)cs2)cc1 [Compound 343, 4-methoxy-N-[4-(2-methyl-3-pyridyl)thiazol-2-yl]benzamide] | +++ (+++: <−6)
